Reference: ChEMBL document CHEMBL1141326, “An HIV RNase H inhibitory 1,3,4,5-tetragalloylapiitol from the African plant Hylodendron gabunensis” (J Nat Prod, 2007)
pIC50: −log10 of the molar value. Activity calls are given as the source filed them. No cut-off for these calls is given here.

How the values were obtained:
[1] = Inhibition of HIV1 RNase H by FRET assay; parameters: species or system Human immunodeficiency virus 1
[2] = Inhibition of HIV2 RNase H by FRET assay; parameters: species or system Human immunodeficiency virus 2
[3] = Inhibition of human RNase H by FRET assay
Escherichia coli = assay: Inhibition of Escherichia coli RNase H at 10 uM by FRET assay

- pIC50 [1]: 6.62
- pIC50 [2]: 6.89
- pIC50 [3]: 5.82
- Activity (Escherichia coli): inactive
Compound: O=C(OC[C@H](OC(=O)c1cc(O)c(O)c(O)c1)C(O)(COC(=O)c1cc(O)c(O)c(O)c1)COC(=O)c1cc(O)c(O)c(O)c1)c1cc(O)c(O)c(O)c1
